Laboratory results from patent EP1144365B1 (TANABE SEIYAKU CO., LTD., priority 1998, dated 2000).
pIC50: −log10 of the molar value. Counter-ions that a name gives are not always drawn.

Columns and labels:
[1] = molecular target: T1, α4β1 integrin (Homo sapiens, UniProt P05556+P13612); test: Jurkat-Endothelial Cell Adhesion Assay (Jurkat EC); type: cell-based; conditions: Jurkat cell adhesion to IL-1 stimulated endothelial cell monolayers
T1 construct: a T-cell line, Jurkat, known to express the α4β1 integrin; host or cells: Jurkat T-cell line
Protocol: The following assay established the activity of the present compounds in inhibiting β1-mediated cell adhesion in a representative in vitro system. This assay measures the adhesive interactions of a T-cell line, Jurkat, known to express the α4β1 integrin, to endothelial monolayers in the presence of test compounds. The test compounds were added in increasing concentrations to T-cells and then the T-cell compound mixture was added to IL-1 stimulated endothelial cell monolayers. The plates were incubated, washed and the percentage of attached cells was quantitated.
Human umbilical vein endothelial cells were purchased from Clonetics (San Diego, CA.) at passage number 2. The cells were grown on 0.5% porcine skin gelatin pre-coated flasks (Sigma, St. Louis MO.) in EGM-UV media (Clonetics, San Diego, CA) supplemented with 10% fetal bovine serum. Cells are refed every 2-3 days reaching confluence by day 4 to 6. […] The endothelial cells are not used following passage 6.
The T-cell line Jurkat was obtained from American Type Tissue Culture Collection (Rockville, MD) and the cells were cultured in RPMI containing 10 % fetal calf serum. The cells were washed twice in Hank's Balanced Salt Solution (HBSS) and resuspended in Dulbecco's Minimal Eagle's Media (DMEM) containing 2.5 mg/ml Human Serum Albumin (HSA). Jurkat cells (1x10^6 cells/ml) were stained with 10 ng/ml BCECF-AM (Molecular Probes, Eugene, OR)) in HBSS without phenol red. The cells were loaded with BCECF for 60 minutes in the dark at 37°C, washed 2 times, and resuspended in DMEM-HSA solution.
Confluent endothelial monolayers, grown in 96-well tissue culture plates, were stimulated for 4 hr. at 37 °C with 0.1 ng/ml (∼50 U/ml) recombinant IL-1 (Amgen, Thousand Oaks, CA). Following this incubation, the monolayers were washed twice with HBSS and 0.1 ml of DMEM-HSA solution was added. Jurkat cells (5 x 10^5 cells) were combined with the appropriate concentration of the test compound and 0.1 ml of the Jurkat cell-compound mixture was added to the endothelial cell monolayers. Generally, 100, 20, 5 and 1.25 µM compound concentrations were tested. […] Following this incubation, the monolayers were washed twice with PBS containing 1 mM calcium chloride and 1 mM magnesium chloride' and the plates were read using a Millipore Cytofluor 2300 (Marlboro, MA.). Fluorescence in each well was measured as Arbitrary Fluorescence Units and percent adhesion in the absence of compound was adjusted to 100% and the % adhesion in the presence of compound was calculated. Monolayers were also fixed in 3% paraformaldehyde and evaluated microscopically to verify the adhesion. This procedure is a modification of a previously published method (Cardarelli et al., J. Biol. Chem. 269:18668-18673 (1994)).

[2] = molecular target: T2, α4β1 (Homo sapiens, UniProt P05556+P13612); test: Jurkat-CS-1 assay; type: cell-based; conditions: Jurkat cell adhesion to immobilized CS-1 derived peptide
T2 construct: 100 µl of Jurkat cells (2.5 x 10^6 cells/ml) in DMEM plus BSA; host or cells: Jurkat T-cell line
Protocol: The CS-1 derived peptide, CLHPGEILDVPST, and the scrambled control peptide, CLHGPIELVSDPT, were synthesized on a Beckman 990 synthesizer using t-Boc methodology. The peptides were immobilized onto microtiter plates using the heterobifunctional crosslinker 3-(2-pyridyldithio)propionic acid N-hydroxysuccinimide ester (SPDP) as reported by Pierschbacher et al., Proc. Natl. Acad. USA, 80:1224-1227 (1983). Microtiter plates were coated with 20 µg/ml HSA for 2 hr. at room temperature, washed once with PBS and derivatized with 10 µg/ml SPDP for 1 hr. After washing, 100 µl of a 100 µg/ml cysteine containing peptide solution which had been recently dissolved was added to the wells and allowed to crosslink to the plates overnight at 4 °C. Unbound peptide was removed from plates by washing with PBS. To block non-reacted sites, the plates are coated with 100 µl of a 2.5 mg/ml BSA solution in PBS for 1 hr. at 37 °C. 100 µl of Jurkat cells (2.5 x 10^6 cells/ml) in DMEM plus BSA (2.5 mg/ml) was mixed with an appropriate concentration of the compound to be tested and the mixture was added to peptide coated dishes and incubated for 1 hr. at 37 °C. Generally 100, 20, 5 and 1.25 µM concentrations of the compound were tested.
Following this incubation the plates were washed once with PBS and the attached cells were fixed with 3% paraformaldehyde in PBS and stained with 0.5% toluidine blue in 3.7% formaldehyde. The cells were stained overnight at room temperature and the optical density at 590 nm of toluidine blue stained cells was determined using a vertical pathway spectrophotometer to quantitate attachment (VMAX Kinetic Microplate Reader, Molecular Devices, Menlo Park, CA). This procedure is a modification of a previously published method (Cardarelli et al, J. Biol. Chem., 269:18668-18673 (1994) and Cardarelli et al, Proc. Natl. Acad. Sci. USA, 83:2647-2651 (1986)).

T1 sequence (P13612 34-1032): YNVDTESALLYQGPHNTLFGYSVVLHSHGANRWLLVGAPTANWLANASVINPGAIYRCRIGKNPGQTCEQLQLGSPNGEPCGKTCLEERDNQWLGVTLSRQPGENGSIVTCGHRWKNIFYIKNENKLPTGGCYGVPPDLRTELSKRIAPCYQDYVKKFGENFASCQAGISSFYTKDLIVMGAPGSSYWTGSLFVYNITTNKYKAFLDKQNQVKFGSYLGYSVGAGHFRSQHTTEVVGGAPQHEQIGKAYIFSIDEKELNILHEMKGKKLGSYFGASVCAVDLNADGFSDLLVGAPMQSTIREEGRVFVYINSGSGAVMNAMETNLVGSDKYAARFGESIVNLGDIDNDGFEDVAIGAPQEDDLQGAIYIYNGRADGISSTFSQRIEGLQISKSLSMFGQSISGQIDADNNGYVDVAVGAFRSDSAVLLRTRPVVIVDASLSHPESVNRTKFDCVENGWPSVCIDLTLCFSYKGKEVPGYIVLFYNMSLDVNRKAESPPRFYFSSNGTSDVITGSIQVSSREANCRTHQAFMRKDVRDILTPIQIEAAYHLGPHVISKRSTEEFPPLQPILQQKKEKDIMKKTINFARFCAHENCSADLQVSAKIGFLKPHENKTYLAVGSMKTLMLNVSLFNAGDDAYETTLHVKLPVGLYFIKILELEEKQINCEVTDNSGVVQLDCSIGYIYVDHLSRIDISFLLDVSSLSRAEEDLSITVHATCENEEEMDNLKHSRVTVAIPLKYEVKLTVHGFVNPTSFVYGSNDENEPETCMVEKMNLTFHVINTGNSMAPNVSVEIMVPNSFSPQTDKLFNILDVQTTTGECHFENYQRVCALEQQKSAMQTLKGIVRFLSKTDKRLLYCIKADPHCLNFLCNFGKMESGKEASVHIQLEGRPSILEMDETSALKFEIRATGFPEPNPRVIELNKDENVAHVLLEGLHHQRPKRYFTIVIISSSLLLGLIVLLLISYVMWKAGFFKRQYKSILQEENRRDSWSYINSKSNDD
T1 sequence (P05556 21-798): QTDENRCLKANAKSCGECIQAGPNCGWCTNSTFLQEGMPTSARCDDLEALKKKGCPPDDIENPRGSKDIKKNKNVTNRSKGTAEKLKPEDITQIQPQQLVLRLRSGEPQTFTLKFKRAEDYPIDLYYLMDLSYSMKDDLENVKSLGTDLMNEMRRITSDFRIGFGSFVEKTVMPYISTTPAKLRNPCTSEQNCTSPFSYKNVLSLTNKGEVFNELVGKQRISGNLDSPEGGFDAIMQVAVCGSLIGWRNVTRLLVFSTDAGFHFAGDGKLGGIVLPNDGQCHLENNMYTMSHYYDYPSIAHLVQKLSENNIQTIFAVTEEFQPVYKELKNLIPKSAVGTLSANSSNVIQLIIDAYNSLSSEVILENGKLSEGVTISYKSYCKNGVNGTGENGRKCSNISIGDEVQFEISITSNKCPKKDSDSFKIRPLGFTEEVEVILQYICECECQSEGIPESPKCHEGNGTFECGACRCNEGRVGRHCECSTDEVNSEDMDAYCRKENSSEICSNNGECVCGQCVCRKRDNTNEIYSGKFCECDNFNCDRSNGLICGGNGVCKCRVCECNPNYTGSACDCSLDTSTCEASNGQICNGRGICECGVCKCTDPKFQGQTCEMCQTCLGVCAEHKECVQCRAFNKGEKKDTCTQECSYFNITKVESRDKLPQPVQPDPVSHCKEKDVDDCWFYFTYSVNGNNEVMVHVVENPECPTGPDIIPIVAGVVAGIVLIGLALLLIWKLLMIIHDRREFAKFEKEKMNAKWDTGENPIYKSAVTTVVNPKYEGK
T2 sequence (P13612 34-1032): as the sequence (P13612 34-1032) above
T2 sequence (P05556 21-798): as the sequence (P05556 21-798) above

Row | Compound | pIC50 [1] | pIC50 [2]
1 | O=C(Nc1ccc(C[C@H](NC(=O)C2(NC(=O)C3NC(C(=O)O)CS3)CCCCC2)C(=O)O)cc1)c1c(Cl)cccc1Cl (stereo partly drawn) [Example 66] | ≥ 6.10 | 6.30 to 7.10
2 | O=C(NC1(C(=O)N[C@@H](Cc2ccc(NC(=O)c3c(Cl)cccc3Cl)cc2)C(=O)O)CC2CCC1C2)c1cc(O)c2ccccc2n1 (stereo partly drawn) [Example 73] | 5.30 to 6.10 | 6.00 to 6.30
3 | O=C(NC1CCCCC1C(=O)NC(Cc1ccc(NC(=O)c2c(Cl)cccc2Cl)cc1)C(=O)O)c1cc(O)c2ccccc2n1 (stereo not drawn) [Example 82] | ≥ 6.10 | 6.30 to 7.10
4 | O=C(O)c1cncc(C(=O)NC2(C(=O)N[C@@H](Cc3ccc(NC(=O)c4c(Cl)cccc4Cl)cc3)C(=O)O)CCCCC2)c1 [Example 59] | 5.30 to 6.10 | 6.30 to 7.10
5 | O=C(O)CC1(CC(=O)NC2(C(=O)N[C@@H](Cc3ccc(NC(=O)c4c(Cl)cccc4Cl)cc3)C(=O)O)CCCCC2)CCCC1 [Example 47] | 5.00 to 5.30 | 6.30 to 7.10
6 | O=C(O)c1ccccc1C(=O)NC1(C(=O)N[C@@H](Cc2ccc(NC(=O)c3c(Cl)cccc3Cl)cc2)C(=O)O)CCCCC1 [Example 56] | 5.30 to 6.10 | 6.30 to 7.10
7 | O=C(O)c1ccc(C(=O)NC2(C(=O)N[C@@H](Cc3ccc(NC(=O)c4c(Cl)cccc4Cl)cc3)C(=O)O)CCCCC2)nc1 [Example 63] | ≥ 6.10 | 6.30 to 7.10
8 | O=C(O)c1ccc(C(=O)NC2(C(=O)N[C@@H](Cc3ccc(NC(=O)c4c(Cl)cccc4Cl)cc3)C(=O)O)CC3CCC2C3)nc1 (stereo partly drawn) [Example 72] | ≥ 6.10 | 6.30 to 7.10
9 | O=C(O)c1cccc(C(=O)N[C@H]2CCCC[C@H]2C(=O)N[C@@H](Cc2ccc(NC(=O)c3c(Cl)cccc3Cl)cc2)C(=O)O)n1 (relative stereo) [Example 80] | 5.30 to 6.10 | 6.30 to 7.10
10 | O=C(O)/C=C1\CCCc2cc(C(=O)N[C@@H](Cc3ccc(NC(=O)c4c(Cl)cccc4Cl)cc3)C(=O)O)ccc21 [Example 135, N-[[(5E)-5-Carboxymethylene-7,8-dihydro-2(6H)-naphthyl]carbonyl]-4-[(2,6-dichlorobenzoyl)amino]-L-phenylalanine sodium salt] | 5.00 to 5.30 | 6.00 to 6.30
11 | COc1ccc(C(=O)NC2(C(=O)N[C@@H](Cc3ccc(NC(=O)c4c(Cl)cccc4Cl)cc3)C(=O)O)CCCCC2)cc1OC [Example 55] | 5.30 to 6.10 | 6.30 to 7.10

Results, then the molecule that gave them:

Row | pIC50 [1] | pIC50 [2] | Compound
12 | ≥ 6.10 | ≥ 7.10 | O=C(O)/C=C1/CCCc2c(C(=O)N[C@@H](Cc3ccc(NC(=O)c4c(Cl)cccc4Cl)cc3)C(=O)O)cccc21 [Example 131, N-[[(5Z)-5-Carboxymethylene-7,8-dihydro-1(6H)-naphthyl]carbonyl]-4-[(2,6-dichlorobenzoyl)amino]-L-phenylalanine]
13 | ≥ 6.10 | 6.30 to 7.10 | O=C(Nc1ccc(C[C@H](NC(=O)C2(NC(=O)C3CCOC3)CC3CCC2C3)C(=O)O)cc1)c1c(Cl)cccc1Cl (stereo partly drawn) [Example 78]
14 | ≥ 6.10 | 6.30 to 7.10 | O=C(Nc1ccc(C[C@H](NC(=O)C2(NC(=O)C3CCOC3)CCCCC2)C(=O)O)cc1)c1c(Cl)cccc1Cl (stereo partly drawn) [Example 69]
15 | ≥ 6.10 | 6.30 to 7.10 | O=C(O)/C=C\C(=O)NC1(C(=O)N[C@@H](Cc2ccc(NC(=O)c3c(Cl)cccc3Cl)cc2)C(=O)O)CCCCC1 [Example 49]
16 | ≥ 6.10 | 6.00 to 6.30 | CC(C)(Sc1ccccc1C(=O)O)C(=O)N[C@@H](Cc1ccc(NC(=O)c2c(Cl)cccc2Cl)cc1)C(=O)O [Example 25]
17 | ≥ 6.10 | 6.30 to 7.10 | O=C(Nc1ccc(C[C@H](NC(=O)N2CCCC(C(=O)O)C2)C(=O)O)cc1)c1c(Cl)cccc1Cl (stereo partly drawn) [Example 116, 1-[[[(1S)-1-carboxy-2-[4-[(2,6-dichlorobenzoyl)amino]phenyl]ethyl]amino]carbonyl]-3-piperidinecarboxylic acid]
18 | 5.30 to 6.10 | 6.30 to 7.10 | CC1(C)[C@@H](CC(=O)N[C@@H](Cc2ccc(NC(=O)c3c(Cl)cccc3Cl)cc2)C(=O)O)C[C@H]1C(=O)O [Example 93, (1R-cis)-N-[(3-Carboxy-2,2-dimethylcyclobutyl)acetyl]-4-[(2,6-dichlorobenzoyl)amino]-L-phenylalanine]
19 | ≥ 6.10 | 6.30 to 7.10 | O=C(O)/C=C1\CCCc2c(C(=O)N[C@@H](Cc3ccc(NC(=O)c4c(Cl)cccc4Cl)cc3)C(=O)O)cccc21 [Example 134, N-[[(5E)-5-Carboxymethylene-7,8-dihydro-1(6H)-naphthyl]carbonyl]-4-[(2,6-dichlorobenzoyl)amino]-L-phenylalanine]
20 | 5.30 to 6.10 | 6.00 to 6.30 | CC(=O)[C@H]1C[C@H](C(=O)N[C@@H](Cc2ccc(NC(=O)c3cccnc3Cl)cc2)C(=O)O)C1(C)C [Example 104, (1S-trans)-N-[(3-Acetyl-2,2-dimethylcyclobutyl)carbonyl]-4-[[(2-chloro-3-pyridinyl)carbonyl]amino]-L-phenylalanine]
21 | 5.30 to 6.10 | 6.00 to 6.30 | O=C(Nc1ccc(C[C@H](NC(=O)[C@@H]2CCC[C@H]2C(=O)O)C(=O)O)cc1)c1c(Cl)cccc1Cl [Example 9]
22 | 5.30 to 6.10 | 6.30 to 7.10 | O=C(O)c1ccc(C(=O)NC2CCCCC2C(=O)NC(Cc2ccc(NC(=O)c3c(Cl)cccc3Cl)cc2)C(=O)O)nc1 (stereo not drawn) [Example 81]
23 | 5.00 to 5.30 | 6.00 to 6.30 | CC(O)[C@H]1C[C@@H](CC(=O)N[C@@H](Cc2ccc(NC(=O)c3c(Cl)cccc3Cl)cc2)C(=O)O)C1(C)C (stereo partly drawn) [Example 89, [1S-(1α,3α)]-4-[(2,6-Dichlorobenzoyl)amino]-N-[[3-(1-hydroxyethyl)-2,2-dimethylcyclobutyl]acetyl]-L-phenylalanine]
24 | ≥ 6.10 | 6.30 to 7.10 | CC1(C)[C@@H](C(=O)O)C[C@@H]1C(=O)N[C@@H](Cc1ccc(NC(=O)c2c(Cl)cccc2Cl)cc1)C(=O)O [Example 98, (1S-trans)-N-[(3-Carboxy-2,2-dimethylcyclobutyl)carbonyl]-4-[(2,6-dichlorobenzoyl)amino]-L-phenylalanine]
25 | 5.30 to 6.10 | 6.00 to 6.30 | O=C(N[C@@H](Cc1ccc(NC(=O)c2c(Cl)cccc2Cl)cc1)C(=O)O)c1cccc(NC(=O)C2CCCC(C(=O)O)C2)c1 (stereo partly drawn) [Example 38]
26 | 5.30 to 6.10 | 6.30 to 7.10 | CC(=O)[C@H]1C[C@@H](C(=O)N[C@@H](Cc2ccc(NC(=O)c3c(Cl)cccc3Cl)cc2)C(=O)O)C1(C)C [Example 101, (1R-cis)-N-[(3-Acetyl-2,2-dimethyleyclobutyl)carbonyl]-4-[(2,6-dichlorobenzoyl)-amino]-L-phenylalanine]
27 | 5.30 to 6.10 | 6.30 to 7.10 | CC(=O)[C@@H]1C[C@@H](C(=O)N[C@@H](Cc2ccc(NC(=O)c3c(Cl)cccc3Cl)cc2)C(=O)O)C1(C)C [Example 100, (1R-trans)-N-[(3-Acetyl-2,2-dimethylcyclobutyl]carbonyl]-4-[(2,6-dichlorobenzoyl)amino]-L-phenylalanine]
